The values that follow come from paper PMC3297008, “Novel Marine Phenazines as Potential Cancer Chemopreventive and Anti-Inflammatory Agents” (Marine Drugs, 2012).

One assay deals with COX-2 mRNA expression. The assay is described as follows: COX-2 mRNA expression in LPS-treated RAW 264.7 cells (real time quantitative PCR). It counts as cell-based. The conditions noted are these: 50 µM. From the text: Figure 2 Effect of phenazines on COX-2 (black) and iNOS (gray) mRNA expression in RAW 264.7 cells. Total RNA was isolated using the TRIZOL® Reagent method (Invitrogen) from RAW 264.7 cells (2 × 10^5 cells/well) after treatment with samples. cDNA was synthesized using the RT^2 First Strand Kit (C-03, SA Biosciences) protocol. cDNA was used for quantitative real time PCRs with fluorescent Power SyBR® Green PCR master mix (Applied Biosystems), employing GAPDH, iNOS, COX-2 specific primers, and a 7300 Real Time PCR System (Applied Biosystems). The results were derived from two independent RNA preparations employing identical triplicates in each analysis and quantitated using GAPDH as the internal control, following the manufacturer’s instructions. (A) GAPDH standard curve for quantitation of iNOS and COX-2 expression; (B) Levels of COX-2 (black) and iNOS (gray) mRNA expression. The concentration and duration of treatment had no significant effect on the viability of Raw 264.7 cells.
Total mRNA samples were isolated, and cDNA was amplified with specific primers, using GAPDH as housekeeping gene. LPS induced the expression of COX-2 and iNOS mRNA by approximately 11- and 24-fold, respectively. […]
RAW 264.7 cells (2 × 10^5 cells/well) were treated with test samples and total RNA was isolated with TRIZOL® Reagent (Invitrogen). […] The results were derived from two independent RNA preparations employing identical triplicates in each analysis and quantified using GAPDH as the internal control, following the manufacturer’s instructions. The fluorescence intensity (Rn) corresponding to the cycle of threshold value (Ct) is used to quantitate a given mRNA, employing the GAPDH standard curve (Figure 3A). The equation Y = −3.9408 X + 31.791 was used to quantify the relative mRNA content, where Y represents the number of cycles corresponding to the Ct (i.e., fluorescence intensity for a given mRNA species), and X represents the log copy number (C0) from which the relative content of mRNA was quantitated. […]

The subject of assay [1] is PGE2 production in LPS-induced RAW 264.7 cells. The assay is described as follows: LPS-induced PGE2 production in RAW 264.7 cells (ELISA). In kind it is cell-based. The conditions noted are these: for IC50: read-out: PGE2 IC50; for inhibition at 50 µM: RAW264.7, read-out: PGE2 % inhibition (50 µM). Here is the method: RAW 264.7 cells (1 × 10^5 cells/well, 200 µL) were incubated in a 96-well culture plate in the presence of 5% CO2 at 37 °C for 24 h. The medium was changed to non-colored DMEM containing 5% FBS, and the cells were treated with various concentrations of compounds for 30 min followed by 1 μg/mL of LPS treatment for 24 h. Cell media were collected, diluted 18-times and used for measuring PGE2. Nunc-Immuno 96-well plates were coated with secondary antibody (goat anti-mouse IgG) affinity purified (Jackson Immuno Research Laboratories). Aliquots of cell media were added to the immune plate with primary PGE2 monoclonal antibody (Cayman Chemical) and a tracer PGE2-acetylcholinesterase (Cayman Chemical) and incubated overnight at room temperature in the dark. The next day, the wells were aspirated, washed, 200 µL of Elman’s reagent was added in each well, and incubated 2–5 h at 37 °C out of direct light until control wells reach an optical density 0.4–0.5. Gentle rotating/shaking was used to decrease the time required for color development. Absorbance was read at 412 nm. The PGE2 concentration of each sample was calculated from a PGE2 standard curve (PGE2 from Cayman Chemical). The percent inhibition as a function of the inhibitor concentration was graphed to determine the IC50 values (concentration at which there was 50% inhibition).

Another assay deals with T1, human COX-2 (Homo sapiens, UniProt P35354).
T1 sequence (P35354 18-604): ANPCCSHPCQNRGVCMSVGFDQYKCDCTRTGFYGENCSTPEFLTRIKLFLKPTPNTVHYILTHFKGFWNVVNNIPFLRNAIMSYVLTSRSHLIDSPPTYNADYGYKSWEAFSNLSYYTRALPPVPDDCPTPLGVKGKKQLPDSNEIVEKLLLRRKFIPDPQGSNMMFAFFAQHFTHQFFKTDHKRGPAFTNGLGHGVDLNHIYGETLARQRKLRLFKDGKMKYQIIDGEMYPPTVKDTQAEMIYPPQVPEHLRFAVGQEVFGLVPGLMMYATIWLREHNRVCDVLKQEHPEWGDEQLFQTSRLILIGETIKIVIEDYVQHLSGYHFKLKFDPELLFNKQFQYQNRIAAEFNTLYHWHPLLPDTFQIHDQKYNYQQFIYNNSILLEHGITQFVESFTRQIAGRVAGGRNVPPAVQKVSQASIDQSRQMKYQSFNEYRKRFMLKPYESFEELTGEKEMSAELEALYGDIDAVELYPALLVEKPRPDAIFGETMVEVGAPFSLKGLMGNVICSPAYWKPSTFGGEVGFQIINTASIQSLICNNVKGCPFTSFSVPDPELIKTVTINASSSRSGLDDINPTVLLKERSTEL
The assay is described as follows: COX-2 inhibition assay (LC-MS/MS of PGE2). In kind it is biochemical. The conditions noted are these: for IC50: human COX-2; for Selectivity COX-1/COX-2: ratio of the IC50 values (COX-1/COX-2). As to the method: Each COX reaction was initiated by adding 20 µL of arachidonic acid in Tris-HCl (pH 8.0) buffer to give a final concentration of 5 µM. The reaction was terminated after 2 min by adding 20 µL of 2.0 M HCl. The surrogate standard PGE2-d4 was added to correct for errors or degradation during sample handling and for variation in injection volume or instrument response during LC-MS/MS. After 30 min, PGE2 and its surrogate standard were extracted from each incubation mixture using 800 µL of hexane/ethyl acetate (50:50, v/v). The organic phase was removed, evaporated to dryness, and reconstituted in 100 µL methanol/water (50:50, v/v) for analysis using LC-MS/MS with an Applied Biosystems AP4000 triple quadrupole mass spectrometer as described previously. The concentration of PGE2 in each sample was measured using LC-MS/MS, and the percent of COX inhibition by each test solution was determined by comparing the amount of PGE2 produced in the experiment with that produced in the negative control incubation. For IC50 value determination, 12 different concentrations of each inhibitor were assayed three times. The IC50 value of each inhibitor toward COX-1 or COX-2 was determined by plotting and analyzing the inhibition curve data using Graph Pad Prism 5 software. The selectivity of each inhibitor was calculated as the ratio of the IC50 values (COX-1/COX-2).

[2] abbreviates: Mus musculus, RAW264.7, LPS-induced RAW 264.7 cells.
The mark [3] stands for this setting: Mus musculus, LPS-induced RAW 264.7 cells.

SMILES strings stand for the structures. Where two headings read alike, the source gives them in different places.

On to `CC1=C(Cn2c3cccc(=O)c-3nc3ccccc32)CCC(C)(C)C1` [Lavanducyanin 3, lavanducyanin], for which the “suppression of COX-2 mRNA expression” value in the assay with COX-2 mRNA expression is given as 51%. Besides, the IC50 in assay [1] (setting [2]) was 0.63 ± 0.16 µM; at human COX-2, 34 ± 1.1 µM. In addition, the inhibition at 50 µM in assay [1] (setting [3]) is 80.6 ± 18.4%. On human COX-2, the “Selectivity COX-1/COX-2” value amounted to 0.88.

Take `CC1=C(Cn2c3ccc(Br)c(=O)c-3nc3ccccc32)CCC(C)(C)C1` [Phenazine 1]: in the assay on COX-2 mRNA expression, the “suppression of COX-2 mRNA expression” value amounted to 40%. For the same compound, the concentration for half-maximal inhibition (IC50) came to 7.15 ± 2.03 µM in assay [1] (LPS-induced RAW 264.7 cells), 7.5 µM in assay [1] (setting [2]) and 4 ± 0.41 µM at human COX-2. For the same compound, the inhibition at 50 µM in assay [1] (setting [3]) was found to be 72.5 ± 16.3%. Also, the “enhancement of inhibition of the catalytic activity of COX-2” value at human COX-2 (phenazine 1 compared with lavanducyanin) is listed as roughly 10 fold. The entries for the “Selectivity COX-1/COX-2” value on human COX-2 and at human COX-2 (listed as phenazine 1) were 2.75 and “approximately 3”, respectively.

Consider `CC(C)=CCn1c2ccc(Br)c(=O)c-2nc2ccccc21` [Phenazine 2], for which the “suppression of COX-2 mRNA expression” value in the assay with COX-2 mRNA expression is listed as 50%. Also, the IC50 in assay [1] (setting [2]) was 0.89 ± 0.22 µM. Further, the inhibition at 50 µM in assay [1] (setting [3]) is 86.9 ± 12.9%. In addition, on human COX-2, the IC50 worked out at 7.2 ± 0.13 µM and the “Selectivity COX-1/COX-2” value is 0.78.
